Assay results: US20110039721A1, “METHOD FOR PREDICTION ABOUT CARCINOGENICITY OF SUBSTANCE IN RODENT” (Chemicals Evaluation and Research Institute, priority 2007, published 2011)

Experiments:
[1] = test system: mRNA expressed from the genes (A) to (D) in rat liver; test: Behavior of genes (mRNA expression level, oligo-DNA microarray) in rat liver after 28-day oral administration; type: in vivo; conditions: mRNA vs vehicle control group
In short: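 Male F344 SPF rats, 5 weeks old, four per group, dosed by oral gavage once daily for 28 days with test chemical or matched-volume solvent. Liver total RNA profiled on oligo-DNA microarray. Change ≥1.5-fold or ≤1/1.5 versus vehicle counted as significant if its direction matched that seen with other carcinogens.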

[2] = test system: liver; conditions: in vivo; cited from earlier work
[3] = test system: rodent; conditions: in vivo; cited from earlier work
[4] = gene group (A), Unigene No. Rn.167075
[5] = gene group (C), Unigene No. Rn.120914

ClC1=C(Cl)C2(Cl)C3C4C=CC(C4)C3C1(Cl)C2(Cl)Cl (centres unmarked) [TS015, Aldrin]
Behavior of gene caused by administration of chemical substance, Gene No. 4846 ([1]; gene group (A), Unigene No. Rn.144554): −
Behavior of gene caused by administration of chemical substance, Gene No. 2026 [1, 4]: −
Behavior of gene caused by administration of chemical substance, Gene No. 4218 [1, 4]: −
Behavior of gene caused by administration of chemical substance, Gene No. 6182 ([1]; gene group (A), Unigene No. Rn.5834): +
Behavior of gene caused by administration of chemical substance, Gene No. 5600 ([1]; gene group (A), Unigene No. Rn.9836): −
Behavior of gene caused by administration of chemical substance, Gene No. 1494 ([1]; gene group (B), Unigene No. Rn.1430): −
Behavior of gene caused by administration of chemical substance, Gene No. 2045 ([1]; gene group (B), Unigene No. Rn.19329): +
Behavior of gene caused by administration of chemical substance, Gene No. 2203 ([1]; gene group (B), Unigene No. Rn.21240): +
Behavior of gene caused by administration of chemical substance, Gene No. 533 ([1]; gene group (C), Unigene No. Rn.106184): −
Behavior of gene caused by administration of chemical substance, Gene No. 725 ([1]; gene group (C), Unigene No. Rn.108075): −
Behavior of gene caused by administration of chemical substance, Gene No. 1163 ([1]; gene group (C), Unigene No. Rn.11766): −
Behavior of gene caused by administration of chemical substance, Gene No. 4973 ([1]; gene group (C), Unigene No. Rn.118529): −
Behavior of gene caused by administration of chemical substance, Gene No. 4095 ([1]; gene group (C), Unigene No. Rn.119024): −
Behavior of gene caused by administration of chemical substance, Gene No. 1334 [1, 5]: −
Behavior of gene caused by administration of chemical substance, Gene No. 6620 [1, 5]: −
Behavior of gene caused by administration of chemical substance, Gene No. 6303 ([1]; gene group (C), Unigene No. Rn.123063): −
Behavior of gene caused by administration of chemical substance, Gene No. 5878 ([1]; gene group (C), Unigene No. Rn.143213): −
Behavior of gene caused by administration of chemical substance, Gene No. 1131 ([1]; gene group (C), Unigene No. Rn.144946): −
Behavior of gene caused by administration of chemical substance, Gene No. 1562 ([1]; gene group (C), Unigene No. Rn.14744): −
Behavior of gene caused by administration of chemical substance, Gene No. 1741 ([1]; gene group (C), Unigene No. Rn.1647): −
Behavior of gene caused by administration of chemical substance, Gene No. 893 ([1]; gene group (C), Unigene No. Rn.164817): −
Behavior of gene caused by administration of chemical substance, Gene No. 6026 ([1]; gene group (C), Unigene No. Rn.167685): −
Behavior of gene caused by administration of chemical substance, Gene No. 154 ([1]; gene group (C), Unigene No. Rn.185941): −
Behavior of gene caused by administration of chemical substance, Gene No. 1993 ([1]; gene group (C), Unigene No. Rn.18728): −
Behavior of gene caused by administration of chemical substance, Gene No. 813 ([1]; gene group (C), Unigene No. Rn.201760): −
Behavior of gene caused by administration of chemical substance, Gene No. 2494 ([1]; gene group (C), Unigene No. Rn.23969): +
Behavior of gene caused by administration of chemical substance, Gene No. 2546 ([1]; gene group (C), Unigene No. Rn.24561): −
Behavior of gene caused by administration of chemical substance, Gene No. 3776 ([1]; gene group (C), Unigene No. Rn.43232): −
Behavior of gene caused by administration of chemical substance, Gene No. 3929 ([1]; gene group (C), Unigene No. Rn.4620): −
Behavior of gene caused by administration of chemical substance, Gene No. 1119 ([1]; gene group (C), Unigene No. Rn.9757): −
Behavior of gene caused by administration of chemical substance, Gene No. 6742 ([1]; gene group (C), Unigene No. Rn.9779): −
Behavior of gene caused by administration of chemical substance, Gene No. 5634 ([1]; gene group (C), Unigene No. Rn.9862): −
Behavior of gene caused by administration of chemical substance, Gene No. 5726 ([1]; gene group (D), Unigene No. Rn.9939): −
Liver carcinogenicity [2]: Cr−
Carcinogenicity [3]: C+
